Converted amounts (≈) assume the structure as drawn. Where two headings read alike, the source gives them in different places.
Legend:
Measles virus = assay: microbe, parasite or virus in culture; type: cell-based; details: Measles morbillivirus, Vero
Sindbis virus = assay: microbe, parasite or virus in culture; type: cell-based; details: Vero
[1] = Test 3: cytotoxicity, Vero cells; type: cell-based, green monkey; details: monkey, Table 4, read-out: Minimum cytotoxic concentration (MCC)
Protocol: (§1) A further test was effected to determine the cytotoxicity of the chemical compounds of Table 1. Cell cultures were incubated with varying concentrations of the esters, during a time period equal to the period required for measuring antiviral activity. The compounds (S)-DHPA and (RS)-DHPA were used for comparative purposes. For each compound, the minimum cytotoxic concentration (MCC) was measured, that is the concentration required to cause a microscopically detectable alteration of normal cell morphology, when incubated with the cells in this way.

Parainfluenza-virus-3 = assay: microbe, parasite or virus in culture; type: cell-based; details: Vero
Reo virus-1 = assay: Test 2: antiviral activity, reo virus-1 in Vero cells; type: cell-based; details: Reo virus-1, Vero cells; Table 3
[2] = Test 3: cytotoxicity, PRK cells; type: cell-based; details: rabbit, Table 4, read-out: Minimum cytotoxic concentration (MCC)
Protocol: as §1

[3] = Test 3: cytotoxicity, HeLa cells; type: cell-based; details: human, Table 4, read-out: Minimum cytotoxic concentration (MCC)
Protocol: as §1

Coxsackie virus-B4 = assay: Test 2: antiviral activity, Coxsackie virus-B4 in HeLa cells; type: cell-based; details: Table 3
living cells = details: known DHPA; cited from earlier work
DNA and RNA viruses [4] = details: known DHPA and related derivatives; cited from earlier work
Solubility = type: physicochemical
DNA and RNA viruses [5] = assay: Antiviral activity against DNA and RNA viruses (general statements); type: cell-based
Reovirus 1 = assay: Test 1: inhibition of virus cytopathic effect, reovirus 1 in Vero B cells; type: cell-based; details: Mammalian orthoreovirus 1; Reovirus 1, Vero B cells; Table 2; read-out: MIC50
Measles = assay: microbe, parasite or virus in culture; type: cell-based; details: Measles morbillivirus, Vero; read-out: MIC50
Vaccinia = assay: microbe, parasite or virus in culture; type: cell-based; details: Orthopoxvirus vaccinia, PRK, read-out: MIC50
Parainfluenza = assay: microbe, parasite or virus in culture; type: cell-based; details: Vero B; read-out: MIC50
Polio 1 = assay: microbe, parasite or virus in culture; type: cell-based; details: HeLa, read-out: MIC50
Herpes simplex 1 (KOS) = assay: Test 1: inhibition of virus cytopathic effect, herpes simplex 1 (KOS) in PRK cells; type: cell-based; details: Table 2, read-out: MIC50
Vesicular stomatitis = assay: microbe, parasite or virus in culture; type: cell-based; details: PRK, read-out: MIC50
[6] = tested on: Vesicular stomatitis virus; type: cell-based; details: ratio of MCC (PRK cells) to MIC50 (vesicular stomatitis virus)
Sindbis = assay: Test 1: inhibition of virus cytopathic effect, Sindbis in Vero B cells; type: cell-based; details: Table 2, read-out: MIC50
Protocol: The antiviral properties of the esters prepared in Example 1 was explored in a variety of cell cultures and with a variety of DNA and RNA viruses such as listed in Table 2. The cells of each cell culture were inoculated with a certain virus in a dose of about 100 CCID50, that is about 100 times the dose needed to infect 50 percent of the cells. One hour after inoculation, the celss were washed with Eagle's nutrient medium and an ester of Example 1 was added in a dose varying from zero to 300 ug/ml and sometimes to more than 400 ug/ml. The compound (S)-DHPA was used in a comparative experiment. […] The cytopathic effect itself was measured in control experiments with virus-infected cell cultures without any added chemical compound and recorded as soon as it reached completion (Method of L. J. Rosenthal and I. L. Schechmaister in "Tissue Culture", p. 510, Academic Press, New York, 1973).
The results are shown in Table 2, wherein the abbreviations have the following meaning: PRK: primary culture of rabbit kidney cells; Vero: continuous line of green monkey kidney cells, HeLa: epithelial line of human cervical carcinoma cells.

Nc1ncnc2c1ncn2CC(O)C(=O)OC1CCCCC1 (racemic) [Compound 11]
EC50 (Measles virus): 15 µg/mL (≈ 49.1 µM) | EC50 (Sindbis virus): > 100 µg/mL | MCC [1]: 100 µg/mL | EC50 (Parainfluenza-virus-3): > 40 µg/mL | EC50 (Reo virus-1): 7 µg/mL (≈ 22.9 µM) | MCC [2]: 100 µg/mL | MCC [3]: 100 µg/mL | EC50 (Coxsackie virus-B4): > 100 µg/mL

CCCCOC(=O)C(O)Cn1cnc2c(N)ncnc21 (racemic) [Compound 5]
EC50 (Measles virus): 25 µg/mL (≈ 89.5 µM) | EC50 (Sindbis virus): 150 µg/mL (≈ 537 µM) | MCC [1]: 200 µg/mL | EC50 (Parainfluenza-virus-3): 70 µg/mL (≈ 251 µM) | EC50 (Reo virus-1): 150 µg/mL (≈ 537 µM) | MCC [2]: 200 µg/mL | MCC [3]: 400 µg/mL | EC50 (Coxsackie virus-B4): > 400 µg/mL

Nc1ncnc2c1ncn2CC(O)CO (centres unmarked) [DHPA, 9-(2,3-dihydroxypropyl)adenine]
acute toxicity for living cells (in words) (living cells): low acute toxicity for living cells | antiviral activity (in words) (DNA and RNA viruses [4]): broad-spectrum antiviral activity in (S) or (RS) form

Nc1ncnc2c1ncn2CC(O)C(=O)O (centres unmarked) [3-(adenin-9-yl)-2-hydroxypropanoic acid]
solubility (in words) (Solubility): poorly soluble in water | antiviral activity (in words) (DNA and RNA viruses [5]): inactivity

COC(=O)C(O)Cn1cnc2c(N)ncnc21 (racemic) [Compound 1, methylester of 3-(adenin-9-yl)-2-hydroxypropanoic acid]
EC50 (Reovirus 1): 300 µg/mL (≈ 1260 µM) | EC50 (Measles virus): 40 µg/mL (≈ 169 µM) | EC50 (Measles): 40 µg/mL (≈ 169 µM) | EC50 (Vaccinia): 7 µg/mL (≈ 29.5 µM) | EC50 (Sindbis virus): > 400 µg/mL | MCC [1]: > 400 µg/mL | EC50 (Parainfluenza): 100 µg/mL (≈ 422 µM) | EC50 (Polio 1): > 400 µg/mL | EC50 (Parainfluenza-virus-3): 20 µg/mL (≈ 84.3 µM) | EC50 (Reo virus-1): 200 µg/mL (≈ 843 µM) | EC50 (Herpes simplex 1 (KOS)): > 400 µg/mL | MCC [2]: > 400 µg/mL | EC50 (Vesicular stomatitis): 3 µg/mL (≈ 12.6 µM) | MCC [3]: > 400 µg/mL | antiviral index [6]: higher than 100 -fold | EC50 (Coxsackie virus-B4): > 400 µg/mL | EC50 (Sindbis): > 400 µg/mL

CC(C)OC(=O)C(O)Cn1cnc2c(N)ncnc21 (racemic) [Compound 4]
EC50 (Measles virus): 150 µg/mL (≈ 565 µM) | EC50 (Sindbis virus): > 400 µg/mL | MCC [1]: > 400 µg/mL | EC50 (Parainfluenza-virus-3): 70 µg/mL (≈ 264 µM) | EC50 (Reo virus-1): 40 µg/mL (≈ 151 µM) | MCC [2]: > 400 µg/mL | MCC [3]: > 400 µg/mL | antiviral index [6]: higher than 100 -fold | EC50 (Coxsackie virus-B4): > 400 µg/mL

Nc1ncnc2c1ncn2C[C@@H](O)CO [DHPA R-enantiomeric form, 9-(2,3-dihydroxypropyl)adenine]
antiviral activity (in words) (DNA and RNA viruses [4]): rather inactive

Nc1ncnc2c1ncn2CC(O)CO (racemic) [(RS)--DHPA, 9-(2,3-dihydroxypropyl)adenine, reference compound]
EC50 (Measles virus): 20 µg/mL (≈ 95.6 µM) | EC50 (Sindbis virus): > 400 µg/mL | MCC [1]: > 400 µg/mL | antiviral activity (in words) (DNA and RNA viruses [4]): antivirally active | EC50 (Parainfluenza-virus-3): 20 µg/mL (≈ 95.6 µM) | EC50 (Reo virus-1): 100 µg/mL (≈ 478 µM) | MCC [2]: > 400 µg/mL | MCC [3]: > 400 µg/mL | EC50 (Coxsackie virus-B4): > 400 µg/mL

CCOC(=O)C(O)Cn1cnc2c(N)ncnc21 (racemic) [Compound 2]
EC50 (Measles virus): 20 µg/mL (≈ 79.6 µM) | EC50 (Sindbis virus): > 400 µg/mL | MCC [1]: > 400 µg/mL | EC50 (Parainfluenza-virus-3): 20 µg/mL (≈ 79.6 µM) | EC50 (Reo virus-1): 40 µg/mL (≈ 159 µM) | MCC [2]: > 400 µg/mL | MCC [3]: > 400 µg/mL | antiviral index [6]: higher than 100 -fold | antiviral index ([6]; listed as racemic ethyl): higher than 400 -fold | EC50 (Coxsackie virus-B4): > 400 µg/mL

CCCOC(=O)C(O)Cn1cnc2c(N)ncnc21 (racemic) [Compound 3]
EC50 (Measles virus): 100 µg/mL (≈ 377 µM) | EC50 (Sindbis virus): > 200 µg/mL | MCC [1]: 400 µg/mL | EC50 (Parainfluenza-virus-3): 100 µg/mL (≈ 377 µM) | EC50 (Reo virus-1): 200 µg/mL (≈ 754 µM) | MCC [2]: 100 µg/mL | MCC [3]: 400 µg/mL | EC50 (Coxsackie virus-B4): > 400 µg/mL

— patent US4605658A (priority 1983, dated 1986)
